# Laboratory results taken from patent publication US10058587B2, “Peptide composition for cancer treatment by inhibiting TRPV6 calcium channel activity” (priority 2008, dated 2018).
# Where no end group is shown, it is not given here.
# Experiments:
# [1] = system: OVCAR3 ovarian cancer cell line; assay: Induction of apoptosis (APO-ONE caspase 3/7) and cell viability (CellTiter Blue); assay type: cell-based, human; parameters: key to Decline in cell viability: decreased (+); or not (−); settings: for apoptosis (treatment:control ratio) compared with CAT cocktail: CAT = 10 uM Paclitaxel, 20 mM carboplatin
# Description: OVCAR-3 was cultured in RPMI 1640 medium supplemented with 1.0 mM sodium pyruvate, 0.01 mg/mL insulin and 10% (v/v) fetal bovine serum.
# (§1) The levels of apoptotic induction and cell viability were determined by multiplexing the measurements for single samples. CellTiter Blue and APO-ONE assay systems from Promega allows the determination of cell viability correlated to cell number, and induction of apoptosis. This protocol uses a fluorgenic peptide that contains a peptide recognition-sequence for caspase 3 and caspase 7, […] proteolytic enzymes of the apoptosis cascade. The CellTiter Blue reagent was added to wells in a 96-well plate containing cells under test, immediately after addition of peptide solution or vehicle. About 5000 cells were plated into the wells the day before. At the chosen time (Day 1, Day 2 etc.) the fluorescence was measured at 590 nm (emission) after excitation at 560 nm. The caspase 3/7 activity was measured (485 nm Ex/527 nm Em) in the same wells after adding 120 uL of the Apo-ONE reagent, freeze fracturing at −80° C. for 1 hr, and incubating for 1 hr at room temperature.
# (§2) For this work, the concentrations of SorC13 and SorC27 used were 0 uM, 1 uM, 10 uM and 100 uM. The experiments extended over a 5 to 7 day period. All measurements were done in quadruplicate with both a blank (no cells) and control (vehicle, no peptide) used to correct the test measurements. The time-response data, and the dose-response data were plotted as means±standard error of the mean. Any statistical comparisons were done with the Student's t-test or by ANOVA analysis over the dose course. The level of statistical significance was considered to be the 95% confidence interval (i.e., p≤0.05).
# (§3) To compare the effect of the two SorC-peptides against the gold-standard treatment for ovarian cancers SorC13 or SorC27 was compared to treatment with a carboplatin and taxol (CAT) cocktail (10 uM Paclitaxel, 20 mM carboplatin) using the APO-ONE assay, which measures the combined activities of caspase 3 and caspase 7. Because of the mixed treatment (CAT), the effects were compared in terms of the ratio of treatment:control. If no effect was noted then the ratio=1. Comparisons of the treatment:control ratios were examined with the Student's t-test at a confidence level of 95%. Ratios of larger than a value of unity indicated a positive effect. The effects are illustrated in FIG. 5.
# [2] = system: SKOV3 ovarian cancer cell line; assay: as above; assay type: cell-based, human; parameters: key to Decline in cell viability: decreased (+); or not (−); settings: for apoptosis (treatment:control ratio) compared with CAT cocktail: CAT = 10 uM Paclitaxel, 20 mM carboplatin
# Description: SKOV-3 was cultured in […] medium supplemented with 1.5 mM L-glutamine, 2.2 g/L sodium bicarbonate and 10% (v/v) fetal bovine serum.
# as §1, §2, §3
# [3] = system: NIH-OVCAR-3 and SKOV3 cells; assay: Ovarian adenocarcinoma xenograft model (Example 14, general results); assay type: in vivo, NOD/SCID mice; settings: 400 mg/kg body weight
# Description: Optionally, to implant NIH-OVCAR-3 or SKOV3 tumor cells into NOD/SCID mice, cell cultures are centrifuged to pellet the cells, the supernatant is aspirated, the cell pellet is resuspended in 10 ml of growth media and the cell number is determined using a hemocytometer. The cells are then washed in appropriate media and re-suspended at a concentration of 5×10^7 cells/ml in media. Using a 27 gauge needle and 1 cc syringe, 0.1 ml of the cell suspension is injected subcutaneously into the flanks of the mice. Tumors are then permitted to develop in vivo until the majority reach 100-200 mm^3 in tumor volume, which typically requires 1-2 weeks following implantation. These tumors are used to produce tissue subcutaneous implants into NOD/SCID mice which after 2 days are treated with either the test peptides or CAT.
# Tumor volumes (V) are calculated by caliper measurement using standard measurements of the width (W), length (L) and thickness (T) of tumors. Animals are randomized into treatment groups so that the median tumor volumes of each group were similar at the start of dosing. % T/C values, as a measure of efficacy, are determined where C refers to volume of control or untreated tumor, and T refers to volume of treated tumor.
# Animals are intraperitoneally (i.p.) injected with this formulation at 10 ml per kg body weight on a schedule.
# Daudi = assay: Apoptosis and cell viability in Burkitt's lymphoma cell line (Example 11); assay type: cell-based, human; settings: 0, 10 and 100 uM, 5 to 7 days
# Description: (§4) For this work, the concentrations of SorC13 and SorC27 used are 0 uM, 10 uM and 100 uM. The experiments extend over a 5 to 7 day period. All measurements are done in quadruplicate with both a blank (no cells) and control (vehicle, no peptide) used to correct the test measurements. The time-response data, and the dose-response data are plotted as means±standard error of the mean.
# The cell line Daudi (from ATCC CCL-213) is grown under the recommended conditions and in culture media recommended by ATCC. The cell lines were cultured under sterile conditions at 37° C., in a humidified 5% CO2 atmosphere.
# (§5) Induction of apoptosis and attendant decrease is observed in cell viability in the cancer cell lines. From the large increases in the activities of the caspase3/7 activity, it is clear that there is a time dependent effect and a dose dependent effect on the induction of apoptosis.
# [4] = system: MCF 7 breast cancer cell line; assay: Induction of apoptosis (APO-ONE caspase 3/7) and cell viability (CellTiter Blue); assay type: cell-based, human
# Description: MCF-7, MDA-MB-231, MDA-MB-415, MDA-MB-468 were grown in DMEM modified with 10% (v/v) fetal bovine serum, 2 mM L-glutamine and 50 ug/mL each of penicillin and streptomycin.
# as §1, §2
# To benchmark the effect of both C-type peptides to the gold-standard treatment presently used against breast cancer (Paclitaxel), SorC13, SorC27 and Paclitaxel (10 uM) were compared. Both the APO-ONE assay (Promega) and the CellTiter Blue were used on the panel of breast cancer cell lines. The data were compared directly in terms of mean response and tested for significant difference.
# PC3 and LnCaP clone FGC = assay: Apoptosis and cell viability in prostate cancer cell lines (Example 10); assay type: cell-based, human; settings: 0, 10 and 100 uM, 5 to 7 days
# Description: as §4
# The cell lines PC3 (from ATCC CRL-1435) and LnCaP clone FGC (from ATCC CRL-1740), obtained from the American Type Culture Collection (ATCC) and grown under the recommended conditions and in culture media recommended by ATCC. The cell lines are cultured under sterile conditions at 37° C., in a humidified 5% CO2 atmosphere.
# as §5
sequence,measurement,setting,value
"KEFLHPSKVDLPR [SorC13, KEFLHPSKVDLPR]",apoptosis (treatment:control ratio) compared with CAT cocktail,[1],produced earlier and more intense apoptosis cascade than the CAT cocktail
same,Apoptosis Index (1 = no effect),"[1]; Day 4, SorC13 100 uM",1.4
same,Apoptosis Index (1 = no effect),"[1]; Day 5, SorC13 100 uM",1.7
same,Decline in cell viability,"[1]; Day 5, SorC13 100 uM",+
same,apoptosis (treatment:control ratio) compared with CAT cocktail,[2],produced earlier and more intense apoptosis cascade than the CAT cocktail
same,Apoptosis Index (1 = no effect),"[2]; Day 4, SorC13 100 uM",2.2
same,Apoptosis Index (1 = no effect),"[2]; Day 5, SorC13 100 uM",2.7
same,Decline in cell viability,"[2]; Day 5, SorC13 100 uM",+
same,growth rate of tumor cells,[3],substantially decreases the growth rate
same,induction of apoptosis and cell viability,Daudi,induces apoptosis and decreases cell viability
same,Apoptosis Index (1 = no effect),[4]; SorC13 1 uM,1.2
same,Apoptosis Index (1 = no effect),[4]; SorC13 10 uM,1.1
same,Apoptosis Index (1 = no effect),[4]; SorC13 100 uM,2.4
same,induction of apoptosis and cell viability,PC3 and LnCaP clone FGC,induces apoptosis and decreases cell viability
EGKLSSNDTEGGLCKEFLHPSKVDLPR [SorC27],apoptosis (treatment:control ratio) compared with CAT cocktail,[1],produced apoptosis sooner and more intensely than the CAT cocktail
same,Apoptosis Index (1 = no effect),"[1]; Day 3, SorC27 10 uM",2.2
same,Apoptosis Index (1 = no effect),"[1]; Day 3, SorC27 100 uM",2.2
same,Apoptosis Index (1 = no effect),"[1]; Day 5, SorC27 10 uM",4.1
same,Apoptosis Index (1 = no effect),"[1]; Day 5, SorC27 100 uM",6.3
same,Decline in cell viability,[1]; SorC27,+
same,apoptosis (treatment:control ratio) compared with CAT cocktail,[2],produced apoptosis sooner and more intensely than the CAT cocktail
same,Apoptosis Index (1 = no effect),"[2]; Day 2, SorC27 10 uM",2.7
same,Apoptosis Index (1 = no effect),"[2]; Day 2, SorC27 100 uM",1.5
same,Apoptosis Index (1 = no effect),"[2]; Day 3, SorC27 1 uM",1.7
same,Apoptosis Index (1 = no effect),"[2]; Day 3, SorC27 10 uM",2.4
same,Apoptosis Index (1 = no effect),"[2]; Day 3, SorC27 100 uM",2.7
same,Decline in cell viability,[2]; SorC27,+
same,growth rate of tumor cells,[3],substantially decreases the growth rate
same,induction of apoptosis and cell viability,Daudi,induces apoptosis and decreases cell viability
same,Apoptosis Index (1 = no effect),"[4]; Day 2, SorC27 10 μM",1.0
same,Apoptosis Index (1 = no effect),"[4]; Day 2, SorC27 100 μM",2.8
same,Apoptosis Index (1 = no effect),"[4]; Day 3, SorC27 10 μM",2.9
same,Apoptosis Index (1 = no effect),"[4]; Day 3, SorC27 100 μM",4.6
same,induction of apoptosis compared with Paclitaxel (10 uM),[4]; SorC27 10 uM,more effective at inducing a faster and more intense apoptotic cascade than Paclitaxel
same,induction of apoptosis and cell viability,PC3 and LnCaP clone FGC,induces apoptosis and decreases cell viability
